Experimental data published in patent US6339064B1, “Benzylglycosylamides as inhibitors of smooth muscle cell proliferation” (American Home Products Corporation, priority 1998, dated 2002).

Tested on: Porcine Smooth Muscle Cell
Test: Effects of compounds on cell proliferation using 3H thymidine incorporation (porcine smooth muscle cell antiproliferation)
Type: cell-based
Conditions: Sus scrofa, serum/growth factor stimulated cells, 24-36 h incubation
Method: Effects of Compounds on Cell Proliferation Using ^3H Thymidine Incorporation
Human and porcine smooth muscle cells were tested in early passage (generally passage 3-7) at sub-confluent conditions. Cultures were grown in 16 mm (24 well) multi-well culture dishes in medium 199 supplemented with 10% fetal bovine serum and 2% antibiotic/antimycotic. At sub-confluence, the cells were placed in a defined serum free medium (AIM-V; Gibco) for 24-48 h prior to initiating the experimental protocol.
Compounds were added to each well at 50 fold dilution (20 μL/well) and the plates were incubated for 24-36 h at 37° C. in 5% CO2. Compounds were initially dissolved in 50% ethanol and serially diluted into media. Compounds were routinely evaluated at concentrations from 1 to 100 μM. As a control, grade II porcine intestinal mucosal herapin (sodium salt) was routinely evaluated in all cell preparations at concentrations from 0.1 to 100 μg/mL.
At the completion of the test procedure, plates were placed on ice, washed three times with ice cold phosphate buffered saline (PBS) and incubated in ice cold 10% trichloroacetic acid (TCA) got 30 min to remove acid soluble proteins. Solution was transferred to scintillation vials containing 0.4 N HCl (500 μL/vial to neutralize NaOH) and each well was rinsed two times with water (500 μL) for a total volume of 2 mL/vial.
Data was obtained, in triplicate, for both control and experimental samples. Control (100%) data was obtained from maximally stimulated cells, as the result of growth factor or serum stimulation. Experimental data was obtained from cells maximally stimulated with growth factor or serum and treated with compound. Data are expressed as an IC50 in Table I below.

Question: CCCCOc1ccc(C(=O)N[C@@H]2O[C@H](COC(C)=O)[C@@H](O[C@H]3O[C@H](COC(C)=O)[C@@H](OC(C)=O)[C@H](OC(C)=O)[C@H]3OC(C)=O)[C@H](OC(C)=O)[C@H]2OC(C)=O)cc1Cl [Example 18, 4-butoxy-3-chloro-N-[2,3,6-tri-O-acetyl-4-O-(2,3,4,6-tetra-O-acetyl-α-D-glucopyranosyl)-β-D-glucopyranosyl]benzamide] was tested. Which IC50 did it give?
Answer: 3.5 µM

Same assay, conditions: at 50 μM, control (100%) = maximally stimulated cells

Question: How did the “Porcine Smooth Muscle Cell Antiproliferation, % at 50 μM” value turn out when N#CCCCOc1ccc(C(=O)NC2OC(CO)C(OC3OC4COC(c5ccccc5)OC4C(O)C3O)C(O)C2O)cc1Cl [Example 15, N-(4′,6′-O-Benzylidene-β-D-maltosyl)-3-chloro-4-(4-nitrilo-butoxy)-benzamide] was run?
Answer: 30% at 50

Question: Which “Porcine Smooth Muscle Cell Antiproliferation, % at 50 μM” value does the source give for CC(=O)OC1C(NC(=O)c2ccc(OCCCC#N)c(Cl)c2)OC(COC(=O)c2ccccc2)C(OC2OC3COC(c4ccccc4)OC3C(OC(C)=O)C2OC(C)=O)C1OC(C)=O [Example 17, N-(2,2′,3,3′-tetra-O-Acetyl-6-O-benzoyl-4′,6′-O-benzylidene-β-D-maltosyl)-3-chloro-4-(4-nitrilo-butoxy)-benzamide] here?
Answer: 33% at 50

Question: CCCCOc1ccc(C(=O)NC2OC(CO)C(OC3OC4COC(c5ccccc5)OC4C(O)C3O)C(O)C2O)cc1Cl.O [Example 19, 4-Butoxy-3-chloro-N-[(4′,6′-O-benzylidene)-β-D-maltosyl]-benzamide hydrate] was tested. Which “Porcine Smooth Muscle Cell Antiproliferation, % at 50 μM” value did it give?
Answer: 35% at 50

Question: How did the “Porcine Smooth Muscle Cell Antiproliferation, % at 50 μM” value turn out when COc1cc(C(=O)NC2OC(CO)C(OC3OC4COC(c5ccccc5)OC4C(O)C3O)C(O)C2O)ccc1Cl [Example 23, N-(4′,6′-O-Benzylidene-β-D-maltosyl)-4-chloro-3-methoxy-benzamide] was run?
Answer: 2% at 50

Question: How did the “Porcine Smooth Muscle Cell Antiproliferation, % at 50 μM” value turn out when CCCCOc1c(Cl)cc(C(=O)N[C@@H]2O[C@H](CO)[C@@H](O[C@H]3O[C@@H]4COC(c5ccccc5)O[C@H]4[C@H](O)[C@H]3O)[C@H](O)[C@H]2O)cc1OC.O (stereo partly drawn) [Example 26, 4-butoxy-3-chloro-N-[(4′,6′-O-benzylidene)-β-D-maltosyl]-5-methoxy-benzamide Hydrate] was run?
Answer: 32% at 50

Question: For CCCCOc1c(Cl)cc(C(=O)NC2OC(COC(=O)c3ccccc3)C(OC3OC4COC(c5ccccc5)OC4C(O)C3O)C(O)C2O)cc1OC [Example 27, N[(6-O-benzoyloxy-4′,6′-O-benzylidene)-β-D-maltosyl]-4-butoxy-3-chloro-5-methoxy-benzamide], which “Porcine Smooth Muscle Cell Antiproliferation, % at 50 μM” value is on record?
Answer: 45% at 50

Question: How did the “Porcine Smooth Muscle Cell Antiproliferation, % at 50 μM” value turn out when CC(=O)OCC1OC(NC(=O)c2ccc(OCCCC#N)c([N+](=O)[O-])c2)C(OC(C)=O)C(OC(C)=O)C1OC1OC(COC(C)=O)C(OC(C)=O)C(OC(C)=O)C1OC(C)=O (stereo not drawn) [Example 28] was run?
Answer: 3% at 50

Question: Which “Porcine Smooth Muscle Cell Antiproliferation, % at 50 μM” value does the source give for N#CCCCOc1ccc(C(=O)NC2OC(CO)C(OC3OC4COC(c5ccccc5)OC4C(O)C3O)C(O)C2O)cc1[N+](=O)[O-] [Example 29, N-(4′,6′-O-Benzylidene-β-D-maltosyl)-4-(4-nitrilo-butoxy)-3-nitro-benzamide] here?
Answer: 4% at 50

Question: Which “Porcine Smooth Muscle Cell Antiproliferation, % at 50 μM” value does the source give for CC(=O)OC1C(NC(=O)c2ccc(OCCCC#N)c([N+](=O)[O-])c2)OC(COC(=O)c2ccccc2)C(OC2OC3COC(c4ccccc4)OC3C(OC(C)=O)C2OC(C)=O)C1OC(C)=O [Example 31, N-(2,2′,3,3′-tetra-O-Acetyl-6-O-benzoyl-4′,6′-O-benzylidene-β-D-maltosyl)-4-(4-nitrilo-butoxy)-3-nitro-benzamide] here?
Answer: 15% at 50

Question: For CC(=O)OC[C@H]1O[C@@H](NC(=O)c2ccc(OCCCC#N)c(N)c2)[C@H](OC(C)=O)[C@@H](OC(C)=O)[C@@H]1O[C@H]1O[C@H](COC(C)=O)[C@@H](OC(C)=O)[C@H](OC(C)=O)[C@H]1OC(C)=O [Example 32], which “Porcine Smooth Muscle Cell Antiproliferation, % at 50 μM” value is on record?
Answer: 10% at 50

Question: How did the “Porcine Smooth Muscle Cell Antiproliferation, % at 50 μM” value turn out when CC(=O)Nc1cc(C(=O)N[C@@H]2O[C@H](COC(C)=O)[C@@H](O[C@H]3O[C@H](COC(C)=O)[C@@H](OC(C)=O)[C@H](OC(C)=O)[C@H]3OC(C)=O)[C@H](OC(C)=O)[C@H]2OC(C)=O)ccc1OCCCC#N [Example 33] was run?
Answer: 0% at 50

Question: O=C(N[C@@H]1O[C@H](CO)[C@@H](O[C@H]2O[C@@H]3COC(c4ccccc4)O[C@H]3[C@H](O)[C@H]2O)[C@H](O)[C@H]1O)c1cccc(C(F)(F)F)c1 (stereo partly drawn) [Example 39, N-(4′,6′-O-Benzylidene-β-D-maltosyl)-3-(trifluoromethyl)-Benzamide] was tested. Which “Porcine Smooth Muscle Cell Antiproliferation, % at 50 μM” value did it give?
Answer: 15% at 50

Same assay, conditions: serum/growth factor stimulated cells, 24-36 h incubation

Question: For N#CCCCOc1ccc(C(=O)NC2OC(COC(=O)c3ccccc3)C(OC3OC4COC(c5ccccc5)OC4C(O)C3O)C(O)C2O)cc1Cl [Example 16, N-(6-O-Benzoyl-4′,6′-O-benzylidene-β-D-maltosyl)-3-chloro-4-(4-nitrilo-butoxy)-phenyl amide], which IC50 is on record?
Answer: 0.27 µM

Question: Which IC50 does the source give for CCCCOc1ccc(C(=O)NC2OC(COC(=O)c3ccccc3)C(OC3OC4COC(c5ccccc5)OC4C(O)C3O)C(O)C2O)cc1Cl [Example 20, 4-Butoxy-3-chloro-N-[(6-O-benzoyl-4′,6′-O-benzylidene)-β-D-maltosyl]-benzamide] here?
Answer: 3.14 µM

Question: How did the IC50 turn out when CCCCOc1ccc(C(=O)N[C@@H]2O[C@H](COC(=O)c3ccccc3)[C@@H](O[C@H]3O[C@@H]4COC(c5ccccc5)O[C@H]4[C@H](OC(C)=O)[C@H]3OC(C)=O)[C@H](OC(C)=O)[C@H]2OC(C)=O)cc1Cl (stereo partly drawn) [Example 21, 4-Butoxy-3-chloro-N-[(2,3,2′,3′-tetra-O-acetyl-6-O-benzoyl-4′,6′-O-benzylidene)-β-D-maltosyl]-benzamide] was run?
Answer: 9.8 µM

Question: Which IC50 does the source give for COc1cc(C(=O)NC2OC(COC(=O)c3ccccc3)C(OC3OC4COC(c5ccccc5)OC4C(O)C3O)C(O)C2O)ccc1Cl [Example 24, N-(6-O-Benzoyl-4′,6′-O-benzylidene-β-D-maltosyl)-4-chloro-3-methoxy-benzamide] here?
Answer: 2 µM

Question: How did the IC50 turn out when CCCCOc1c(Cl)cc(C(=O)NC2OC(COC(C)=O)C(OC3OC(COC(C)=O)C(OC(C)=O)C(OC(C)=O)C3OC(C)=O)C(OC(C)=O)C2OC(C)=O)cc1OC [Example 25, N-(2,2′,3,3′,4,6,6′-hepta-O-acetyl-β-D-maltosyl]-4-butoxy-5-chloro-3-methoxy-benzamide] was run?
Answer: 2.7 µM

Question: For N#CCCCOc1ccc(C(=O)NC2OC(COC(=O)c3ccccc3)C(OC3OC4COC(c5ccccc5)OC4C(O)C3O)C(O)C2O)cc1[N+](=O)[O-] [Example 30, N-(6-O-Benzoyl-4′,6′-O-benzylidene-β-D-maltosyl)-4-(4-nitrilo-butoxy)-3-nitro-benzamide], which IC50 is on record?
Answer: 1.4 µM

Question: With CC(=O)Nc1cc(C(=O)NC2OC(COC(=O)c3ccccc3)C(OC3OC4COC(c5ccccc5)OC4C(O)C3O)C(O)C2O)ccc1OCCCC#N [Example 34, 3-Acetylamino-N-(6-O-benzoyl-4′,6′-O-benzylidene-β-D-maltosyl)-4-(4-nitrilo-butoxy)-benzamide] as the compound, how does the IC50 read?
Answer: 0.98 µM

Question: Which IC50 does the source give for CC(=O)OC[C@H]1O[C@@H](NC(=O)c2ccc(Cl)nc2)[C@H](OC(C)=O)[C@@H](OC(C)=O)[C@@H]1O[C@H]1O[C@H](COC(C)=O)[C@@H](OC(C)=O)[C@H](OC(C)=O)[C@H]1OC(C)=O [Example 35, N-(Hepta-O-acetyl-β-D-maltosyl)-6-chloropyridine-3-carboxamide] here?
Answer: 66.6 µM

Question: For COc1ccc(C(=O)N[C@@H]2O[C@H](COC(C)=O)[C@@H](O[C@H]3O[C@H](COC(C)=O)[C@@H](OC(C)=O)[C@H](OC(C)=O)[C@H]3OC(C)=O)[C@H](OC(C)=O)[C@H]2OC(C)=O)c(OC)n1 [Example 36, N-(Hepta-O-acetyl-β-D-maltosyl)-2,6-dimethoxy-pyridine-3-carboxamide], which IC50 is on record?
Answer: 13.6 µM

Question: For CC(=O)OC[C@H]1O[C@@H](NC(=O)c2cncc(Br)c2)[C@H](OC(C)=O)[C@@H](OC(C)=O)[C@@H]1O[C@H]1O[C@H](COC(C)=O)[C@@H](OC(C)=O)[C@H](OC(C)=O)[C@H]1OC(C)=O [Example 37, N-(Hepta-O-acetyl-β-D-maltosyl)-5-bromopyridine-3-carboxamide], which IC50 is on record?
Answer: 16.4 µM

Question: For CC(=O)OC[C@H]1O[C@@H](NC(=O)c2cccc(C(F)(F)F)c2)[C@H](OC(C)=O)[C@@H](OC(C)=O)[C@@H]1O[C@H]1O[C@H](COC(C)=O)[C@@H](OC(C)=O)[C@H](OC(C)=O)[C@H]1OC(C)=O [Example 38, N-(Hepta-O-acetyl-β-D-maltosyl)-3-(trifluoromethyl)-benzamide], which IC50 is on record?
Answer: 5.8 µM

Question: O=C(NC1OC(COC(=O)c2ccccc2)C(OC2OC3COC(c4ccccc4)OC3C(O)C2O)C(O)C1O)c1cccc(C(F)(F)F)c1 [Example 40, N-[{6-O-Benzoyl-4′,6′-O-benzylidene}-β-D-maltosyl]-3-(trifluoromethyl)-benzamide] was tested. Which IC50 did it give?
Answer: 7.15 µM

Question: For CC(=O)OC[C@H]1O[C@@H](NC(=O)c2ccc(C)nc2)[C@H](OC(C)=O)[C@@H](OC(C)=O)[C@@H]1O[C@H]1O[C@H](COC(C)=O)[C@@H](OC(C)=O)[C@H](OC(C)=O)[C@H]1OC(C)=O [Example 41, N-(Hepta-O-acetyl-β-D-maltosyl)-6-methylpyridine-3-carboxamide], which IC50 is on record?
Answer: 65.8 µM

Question: With CCCCOc1c(Cl)cc(C(=O)N[C@@H]2O[C@H](CO)[C@@H](O[C@H]3O[C@H](CO)[C@@H](O)[C@H](O)[C@H]3O)[C@H](O)[C@H]2O)cc1Cl [Example 42, 4-Butoxy-3,5-dichloro-N-β-D-maltosyl-benzamide] as the compound, how does the IC50 read?
Answer: 28.9 µM
